Source: US7893077B2, “Bisaryl-sulfonamides” (Amgen Inc., priority 2004, dated 2011)

Biological target: T1, PPARγ (Homo sapiens, UniProt P37231)
T1 construct: made in house
T1 sequence (P37231 1-505): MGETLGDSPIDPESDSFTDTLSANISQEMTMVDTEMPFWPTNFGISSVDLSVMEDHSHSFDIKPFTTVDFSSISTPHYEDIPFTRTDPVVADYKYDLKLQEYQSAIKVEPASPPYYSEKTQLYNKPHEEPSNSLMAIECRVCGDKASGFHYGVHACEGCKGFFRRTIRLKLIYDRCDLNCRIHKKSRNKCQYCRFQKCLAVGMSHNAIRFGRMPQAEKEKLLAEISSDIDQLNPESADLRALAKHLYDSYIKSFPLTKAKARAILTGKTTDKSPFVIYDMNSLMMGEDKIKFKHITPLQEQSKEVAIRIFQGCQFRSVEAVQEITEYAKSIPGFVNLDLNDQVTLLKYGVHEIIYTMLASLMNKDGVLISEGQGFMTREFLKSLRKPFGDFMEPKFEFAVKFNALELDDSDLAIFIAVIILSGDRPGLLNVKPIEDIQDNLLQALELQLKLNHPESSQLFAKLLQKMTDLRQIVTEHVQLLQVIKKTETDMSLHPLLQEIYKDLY
Assay: PPARγ ligand binding assay utilizing [3H]-BRL 49653 as the radioligand (filtration)
Details: concentration required to reduce by 50% the specific binding of [3H]-BRL 49653
Summary of the method: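 Displacement of 10 nM [3H]-BRL 49653 from PPARγ-GST fusion protein in Tris-HCl pH 8.0 buffer with KCl, DTT, BSA and NP-40, 15 min incubation, then glutathione-bead capture for 1 h. Bound radioactivity counted after filtration washes; IC50 is concentration giving 50% loss of specific binding, reported in ranges.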

Structure (SMILES) | IC50
Cc1nc(NS(=O)(=O)c2ccc(C(F)(F)F)cc2Cl)ccc1Sc1ccc(S(=O)(=O)N2CCOCC2)cc1 [Compound 103, 2-Chloro-N-{6-methyl-5-[4-(morpholine-4-sulfonyl) -phenylsulfanyl]-pyridin-2-yl}-4-trifluoromethyl-benzenesulfonamide] | < 1 µM
CCc1nc(NS(=O)(=O)c2ccc(Cl)cc2Cl)ccc1Sc1ccc(S(=O)(=O)N2CCOCC2)cc1 [Compound 104, 2,4-Dichloro-N-{6-ethyl-5-[4-(morpholine-4-sulfonyl) -phenylsulfanyl]-pyridin-2-yl}-benzenesulfonamide] | < 10 µM
CCc1nc(NS(=O)(=O)c2ccc(C(F)(F)F)cc2Cl)ccc1Sc1ccc(S(=O)(=O)N2CCOCC2)cc1 [Compound 105, 2-Chloro-N-{6-ethyl-5-[4-(morpholine-4-sulfonyl) -phenylsulfanyl]-pyridin-2-yl}-4-trifluoromethyl-benzenesulfonamide] | < 10 µM
CCCC(=O)c1nc(NS(=O)(=O)c2ccc(Cl)cc2Cl)ccc1Sc1ccc(S(=O)(=O)C(C)C)cc1 [Compound 106, N-{6-Butyryl-5-[4-(propane-2-sulfonyl)-phenylsulfanyl]-pyridin-2-yl}-2,4-dichloro-benzenesulfonamide] | < 1 µM
CC(C)S(=O)(=O)c1ccc(Sc2ccc(NS(=O)(=O)c3ccc(Cl)cc3Cl)nc2C(=O)C2CC2)cc1 [Compound 107, 2,4-Dichloro-N-{6-cyclopropanecarbonyl-5-[4-(propane-2-sulfonyl)-phenylsulfanyl]-pyridin-2-yl}-benzenesulfonamide] | < 1 µM
O=S(=O)(Nc1ccc(Sc2ccc(S(=O)(=O)N3CCOCC3)cc2)c(C(F)(F)F)n1)c1ccc(Cl)cc1Cl [Compound 108, 2,4-Dichloro-N-{5-[4-(morpholine-4-sulfonyl)-phenylsulfanyl]-6-trifluoromethyl-pyridin-2-yl}-benzenesulfonamide] | < 10 µM
O=S(=O)(Nc1ccc(Sc2ccc(S(=O)(=O)N3CCOCC3)cc2)c(C(F)(F)F)n1)c1ccc(C(F)(F)F)cc1Cl [Compound 109, 2-Chloro-N-{5-[4-(morpholine-4-sulfonyl)-phenylsulfanyl]-6-trifluoromethyl-pyridin-2-yl}-4-trifluoromethyl-benzenesulfonamide] | < 10 µM
CCCOc1nc(NS(=O)(=O)c2ccc(C(F)(F)F)cc2Cl)ccc1Sc1ccc(S(=O)(=O)N2CCCCC2)cc1 [Compound 110, 2-Chloro-N-{5-[4-(piperidine-1-sulfonyl)-phenylsulfanyl]-6-propoxy-pyridin-2-yl}-4-trifluoromethyl-benzenesulfonamide] | < 10 µM
CCCOc1nc(NS(=O)(=O)c2ccc(Cl)cc2Cl)ccc1Sc1ccc(S(=O)(=O)N2CCCCC2)cc1 [Compound 111, 2,4-Dichloro-N-{5-[4-(piperidine-1-sulfonyl)-phenylsulfanyl]-6-propoxy-pyridin-2-yl}-benzenesulfonamide] | < 10 µM
CCCC(=O)c1nc(NS(=O)(=O)c2ccc(Cl)cc2Cl)ccc1Sc1ccc(S(=O)(=O)C2CCCC2)cc1 [Compound 112, N-[6-Butyryl-5-(4-cyclopentanesulfonyl-phenylsulfanyl)-pyridin-2-yl]-2,4-dichloro-benzenesulfonamide] | < 1 µM
O=C(c1nc(NS(=O)(=O)c2ccc(Cl)cc2Cl)ccc1Sc1ccc(S(=O)(=O)C2CCCC2)cc1)C1CC1 [Compound 113, 2,4-Dichloro-N-[5-(4-cyclopentanesulfonyl-phenylsulfanyl)-6-cyclopropanecarbonyl-pyridin-2-yl]-benzenesulfonamide] | < 1 µM
CCCC(=O)c1nc(NS(=O)(=O)c2ccc(C(F)(F)F)cc2Cl)ccc1Sc1ccc(S(=O)(=O)C2CCCC2)cc1 [Compound 114, N-[6-Butyryl-5-(4-cyclopentanesulfonyl-phenylsulfanyl)-pyridin-2-yl]-2-chloro-4-trifluoromethyl-benzenesulfonamide] | < 1 µM
